In US20110104281A1, “METHOD FOR TREATING PAIN USING A SUBSTITUTED 2-AMINOTETRALIN COMPOUND” (UCB PHARMA GMBH, priority 2006, published 2011):

Tested on: Sprague Dawley rats
Assay: TNF model of muscular mechanical hyperalgesia: withdrawal threshold to muscle pressure (Randall-Selitto)
Assay type: in vivo, rat
Settings: for % MPE on withdrawal pressure, Mean: TNF model
Description: The TNF test is used as a model of muscular mechanical hyperalgesia, which occurs in human fibromyalgia, myofascial pain or back pain. Intramuscular injection of tumor necrosis factor alpha (TNF) induces mechanical muscle hyperalgesia in rats. This is quantified by measuring the withdrawal threshold to muscle pressure and the grip strength. Mechanical withdrawal threshold to muscle pressure is measured with an analgesimeter exerting pressure on the gastrocnemius muscle previously injected with TNF. Forelimb grip strength is measured with a digital grip force meter after TNF injection into biceps brachii muscles. […] See, for example, […] et al., Pain 104(3):579-588 (2003). Adult male Sprague Dawley rats, from Charles River Sulzfeld, Germany, with a body weight of 220 g to 300 g were group-housed (3 animals per cage) and maintained in a room with controlled temperature (21-22° C.) and a reversed light-dark cycle (12 h/12 h) with food and water available ad libitum. […] All rats were habituated to the behavioral tests before injections and baseline values were recorded over three test days. Mechanical withdrawal thresholds to muscle pressure were measured with an analgesimeter (Ugo Basile, Comerio, Italy) according to the Randall-Selitto method. The rats were permitted to crawl into a sock, allowing them to relax. […] The pressure needed to elicit withdrawal was recorded. […] Three pre-tests were performed on days -3, -2 and -1, testing the left and right side in succession. Pre-test values varied only minimally over these 3 days. The mean withdrawal threshold for the 3 pre-test days was determined and taken for analysis. Only animals with a significant TNF effect were included for further analysis. The rats were injected with TNF into the gastrocnemius muscle. […] The rats were then placed in groups of 10 and treated with 0.3, 1.0 or 3.0 mg/kg rotigotine or vehicle i.p. Injection volume of i.p. injections was 0.5 ml/kg (weight dependent). Grip strength was again tested after 15 to 60 minutes, following injection of the rotigotine. Data are shown in graphs displaying means and SEMs. Pre- and post-treatment data were compared by ANOVA (analysis of variance) and a Tukey post hoc test. […] Maximal possible effects (MPE) were calculated for all types of treatment.

## CCCN(CCc1cccs1)[C@H]1CCc2c(O)cccc2C1 [Rotigotine, 5,6,7,8-tetrahydro-6-[propyl-[2-(2-thienyl)ethyl]amino]-1-naphthol]
Rotigotine 0.3 mg/kg
  % MPE on withdrawal pressure, Mean: −6.6%
Rotigotine 1 mg/kg
  % MPE on withdrawal pressure, Mean: 4.8%
rats, 0.3, 1 and 3 mg/kg i.p., conclusion of the study
  Reduction of muscular hyperalgesia induced by TNF injected into muscle: dose-dependent reduction of muscular hyperalgesia
With TNF i.m. into gastrocnemius, rotigotine 0.3 mg/kg i.p.
  Withdrawal pressure, Mean: 5.6 g
With TNF i.m. into gastrocnemius, rotigotine 1 mg/kg i.p.
  Withdrawal pressure, Mean: 6.5 g
With TNF i.m. into gastrocnemius, rotigotine 3 mg/kg i.p.
  Withdrawal pressure, Mean: 6.5 g
Without TNF, rotigotine 0.3 mg/kg i.p.
  Withdrawal pressure, Mean: 9.1 g
Without TNF, rotigotine 3 mg/kg i.p.
  Withdrawal pressure, Mean: 9.7 g
